Here are results for 13 compounds from US6608086B2, “Dihydropyridines and new uses thereof” (Synaptic Pharmaceutical Corporation, priority 1993, dated 2003).

Structures are written as SMILES. Where a name gives a salt, the structure may show the parent alone. Read-outs that look alike come from different tables or passages of the source.

Data set [1] addresses T1, α1B Human Adrenergic Receptor (Homo sapiens, UniProt P35368).
T1 construct: The entire coding region of α1B (1563 bp); expressed in transfected cells
T1 sequence (P35368 1-520): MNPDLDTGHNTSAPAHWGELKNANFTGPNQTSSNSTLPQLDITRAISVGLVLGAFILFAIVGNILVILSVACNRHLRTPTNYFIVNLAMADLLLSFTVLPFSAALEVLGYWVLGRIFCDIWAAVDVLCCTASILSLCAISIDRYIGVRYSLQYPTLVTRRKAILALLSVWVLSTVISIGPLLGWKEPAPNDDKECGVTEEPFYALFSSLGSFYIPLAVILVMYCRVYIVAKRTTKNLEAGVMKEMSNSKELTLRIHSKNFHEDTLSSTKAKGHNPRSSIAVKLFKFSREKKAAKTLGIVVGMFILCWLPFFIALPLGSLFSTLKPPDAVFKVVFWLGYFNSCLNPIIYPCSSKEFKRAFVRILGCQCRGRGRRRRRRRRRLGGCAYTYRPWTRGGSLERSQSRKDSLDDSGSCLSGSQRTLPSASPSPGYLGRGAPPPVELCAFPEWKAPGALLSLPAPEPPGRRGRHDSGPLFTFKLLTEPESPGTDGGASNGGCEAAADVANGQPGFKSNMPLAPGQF
In words: Radioligand binding, [3H]prazosin, cloned human α1B adrenergic receptor. As for the experimental part: (§1) The protocols for these experiments are given below.
(§2) These cell lines were prepared by transfecting the cloned cDNA or cloned genomic DNA or constructs containing both genomic DNA and cDNA encoding the human α-adrenergic receptors as follows:
α1B Human Adrenergic Receptor:
The construct involved ligating the full-length containing EcoRI brainstem cDNA fragment from λ ZapII into the expression vector. Stable cell lines were selected as described above.
(§3) Radioligand Binding Assays:
(§4) Transfected cells from culture flasks were scraped into 5 ml of 5 mM Tris-HCl, 5 mM EDTA, pH 7.5, and lysed by sonication. The cell lysates were centrifuged at 1000 rpm for 5 min at 4° C., and the supernatant was centrifuged at 30,000× g for 20 min at 4° C. The pellet was suspended in 50 mM Tris-HCl, 1 mM MgCl2, and 0.1% ascorbic acid at pH 7.5. Binding of the α1 antagonist [^3H]prazosin (0.5 nM, specific activity 76.2 Ci/mmol) to membrane preparations of LM(tk−) cells was done in a final volume of 0.25 ml and incubated at 37° C. for 20 min. Nonspecific binding was determined in the presence of 10 μM phentolamine. The reaction was stopped by filtration through GF/B filters using a cell harvester.

The target of data set [2] is T2, α1C Human Adrenergic Receptor (Homo sapiens, UniProt P35348).
T2 construct: The entire coding region of α1C (1401 bp); expressed in transfected cells
T2 sequence (P35348 1-466): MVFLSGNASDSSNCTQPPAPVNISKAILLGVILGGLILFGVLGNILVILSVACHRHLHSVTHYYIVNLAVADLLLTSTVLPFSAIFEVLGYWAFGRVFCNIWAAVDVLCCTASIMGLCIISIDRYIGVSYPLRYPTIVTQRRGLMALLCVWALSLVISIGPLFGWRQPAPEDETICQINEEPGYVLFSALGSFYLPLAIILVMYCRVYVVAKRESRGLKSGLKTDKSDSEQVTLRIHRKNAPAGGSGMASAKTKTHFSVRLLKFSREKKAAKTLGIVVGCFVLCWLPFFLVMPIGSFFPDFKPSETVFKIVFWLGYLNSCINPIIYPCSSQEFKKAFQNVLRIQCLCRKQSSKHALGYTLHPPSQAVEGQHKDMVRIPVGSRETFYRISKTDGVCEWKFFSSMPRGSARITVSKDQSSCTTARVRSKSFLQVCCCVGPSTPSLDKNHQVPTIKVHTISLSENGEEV
In words: Radioligand binding, [3H]prazosin, cloned human α1C adrenergic receptor. As for the experimental part: as §1, §2
α1C Human Adrenergic Receptor:
The construct involved ligating three partial overlapping fragments: a 5′, 0.6 kb HincII genomic clone, a central 1.8 EcoRI hippocampal cDNA clone, and a 3′ 0.6Kb PstI genomic clone. The hippocampal cDNA fragment overlaps with the 5′ and 3′ genomic clones so that the HincII and PstI sites at the 5′ and 3′ ends of the cDNA clone, respectively, were utilized for ligation. This full-length clone was cloned into the KpnI site of the expression vector, using the 5′ and 3′ KpnI sites of the fragment, derived from vector (i.e., pBluescript) and 3′-untranslated sequences, respectively. Stable cell lines were selected as described above.
as §3, §4

In data set [3] the target is T3, α1A Human Adrenergic Receptor (Homo sapiens, UniProt P25100).
T3 construct: The entire coding region of α1A (1719 bp); expressed in transfected cells
T3 sequence (P25100 1-572): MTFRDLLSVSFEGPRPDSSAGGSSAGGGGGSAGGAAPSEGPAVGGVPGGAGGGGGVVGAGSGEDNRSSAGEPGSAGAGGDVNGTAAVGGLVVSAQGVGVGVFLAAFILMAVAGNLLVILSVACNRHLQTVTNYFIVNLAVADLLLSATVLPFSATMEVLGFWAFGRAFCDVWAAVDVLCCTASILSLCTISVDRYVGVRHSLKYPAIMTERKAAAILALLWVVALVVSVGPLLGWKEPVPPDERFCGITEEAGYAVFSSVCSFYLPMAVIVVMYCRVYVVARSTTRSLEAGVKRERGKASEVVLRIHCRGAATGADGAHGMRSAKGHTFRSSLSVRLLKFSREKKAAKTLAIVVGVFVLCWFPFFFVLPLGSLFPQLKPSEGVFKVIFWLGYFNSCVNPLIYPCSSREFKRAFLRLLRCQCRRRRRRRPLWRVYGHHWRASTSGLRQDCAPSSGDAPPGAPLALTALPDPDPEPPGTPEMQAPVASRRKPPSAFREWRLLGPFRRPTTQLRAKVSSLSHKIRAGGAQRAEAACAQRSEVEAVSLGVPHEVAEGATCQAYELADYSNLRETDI
In words: Radioligand binding, [3H]prazosin, cloned human α1A adrenergic receptor. As for the experimental part:
as §1, §2
α1A Human Adrenergic Receptor:
The cells were grown, in a controlled environment (37° C., 5% CO2), as monolayers in Dulbecco's modified Eagle's Medium (GIBCO, Grand Island, N.Y.) containing 25 mM glucose and supplemented with 10% bovine calf serum, 100 units/ml penicillin g, and 100 μg/ml streptomycin sulfate.
as §3, §4

[4] abbreviates: cloned human α1B receptor, LM(tk−) cell membranes, read-out: pKi alpha-1 1b (converted).
Setting [5] is: cloned human α1C receptor, LM(tk−) cell membranes, read-out: pKi alpha-1 1c (converted).
[6] abbreviates: [3H]prazosin, cloned human α1A receptor, LM(tk−) cell membranes, read-out: pKi alpha-1 1a (converted).
The mark [7] stands for this setting: cloned human receptor, LM(tk-) cell membranes, mean, read-out: PKi alpha-1 1b (converted).
The mark [8] stands for this setting: cloned human receptor, LM(tk-) cell membranes, mean, read-out: PKi alpha-1 1c (converted).
The mark [9] stands for this setting: [3H]prazosin, cloned human receptor, LM(tk-) cell membranes, mean, read-out: PKi alpha-1 1a (converted).

The term melting point denotes the temperature of the solid-liquid transition. The compound `CCC1=C(C(=O)OCCC#N)C(c2ccc([N+](=O)[O-])cc2)C(C(=O)NCCCN2CCC(c3ccccc3)(c3ccccc3)CC2)=C(COC)N1` (stereo not shown) (hydrate or solvate) [Example 135] came in with a melting point of 120 to 125 °C.

With `COC(=O)C1=C(C)NC(C)=C(C(=O)NCCN2CCC(c3ccccc3)(c3ccccc3)CC2)C1c1ccc([N+](=O)[O-])cc1` (stereo not shown) (as salt: hydrochloride) (hydrate or solvate) [Example 52, 1,4-Dihydro-3-methoxycarbonyl-2,6-dimethyl-4-(4-nitrophenyl)-5-{N-[2-(4,4-diphenylpiperidin-1-yl)ethyl]}carboxamidopyridine hydrochloride hemihydrate], the melting point lay in the range of 170 to 171 °C.

As to `COC(=O)C1=C(C)NC(C)=C(C(=O)NCCCN2CCCCC2)C1c1ccc([N+](=O)[O-])cc1` (stereo not shown) (as salt: hydrochloride) (hydrate or solvate) [Example 51, 1,4-Dihydro-3-methoxycarbonyl-2,6-dimethyl-4-(4-nitrophenyl)-5-{N-[3-(piperidin-1-yl)propyl]}carboxamidopyridine hydrochloride etherate], the melting point was 150 to 150.5 °C.

Take `CCC1=C(C(=O)NC)C(c2ccc([N+](=O)[O-])cc2)C(C(=O)NCCCN2CCC(OC)(c3ccccc3)CC2)=C(CC)N1` (stereo not shown) [Example 108]: the Ki in data set [1] (setting [4]) was 4170 nM; in data set [2] (setting [5]) it was 6.92 nM; in data set [3] (setting [6]), 2950 nM.

`CCC1=C(C(=O)O)C(c2ccc([N+](=O)[O-])cc2)C(C(=O)NCCCN2CCC(c3ccccc3)(c3ccccc3)CC2)=C(CC)N1` (stereo not shown) [Example 130, 2,6-Diethyl-1,4-dihydro-4-(4-nitrophenyl)-5-{N-[3-(4,4-diphenylpiperidin-1-yl)propyl]}carboxamidopyridine-3-carboxylic acid]: the Ki in data set [1] (setting [4]) was 417 nM; in data set [2] (setting [5]), 10.7 nM; in data set [3] (setting [6]) it was 912 nM.

For the compound `CC(=O)C1=C(C)NC(COCCCN)=C(C(=O)NCCCN2CCC(c3ccccc3)(c3ccccc3)CC2)C1c1ccc([N+](=O)[O-])cc1` (stereo not shown) [Example 236, 5-Acetyl-2-((3-aminopropyl)oxy)methyl-1,4-dihydro-6-methyl-4-(4-nitro)phenyl-3-(N-(3-(4,4-diphenylpiperidin-1-yl)propyl)) carboxamidopyridine], the Ki in data set [1] (setting [7]) was 204 nM; in data set [2] (setting [8]), 2.51 nM; in data set [3] (setting [9]), 347 nM.

Take `CNC(=O)C1=C(C)NC(C)=C(C(=O)NCCCN2CCC(c3ccccc3)(c3ccccc3)CC2)C1c1ccc([N+](=O)[O-])cc1` (single isomer, unassigned; (+)) [(+)-119, 1,4-dihydro-2,6-dimethyl-5-(N-methyl) carboxamido-4-(4-nitrophenyl)-3-{N-[3-(4,4-diphenylpiperidin-1-yl)propyl]} carboxamidopyridine]: the figures for the Ki in data set [1] (setting [4]), in data set [2] (setting [5]) and in data set [3] (pKi alpha-1 1a) were 832 nM, 380 nM and 1290 nM, respectively.

For `COC(=O)C1=C(C)NC(C)=C(C(=O)NCCCN2CCc3ccccc3C2)C1c1ccc([N+](=O)[O-])cc1` (stereo not shown) [Example 59, 1,4-Dihydro-5-{N-[3-(1,2,3,4-tetrahydroisoquinolin-2-yl)propyl]}carboxamido-3-methoxycarbonyl-2,6-dimethyl-4-(4-nitrophenyl)pyridine hydrochloride hydrate], the Ki in data set [1] (cloned human receptor in LM(tk-) cell membranes, SEM and n in lines below, read-out: pKi alpha-1 1b (converted)) is 389 nM; in data set [2] (cloned human receptor in LM(tk-) cell membranes, SEM and n in lines below, read-out: pKi alpha-1 1c (converted)) it was 245 nM; in data set [3] ([3H]prazosin, cloned human receptor in LM(tk-) cell membranes, SEM and n in lines below, read-out: pKi alpha-1 1a (converted)), 513 nM.

With `CNC(=O)C1=C(C)NC(C)=C(C(=O)NCCCN2CCC(c3ccccc3)(c3ccccc3)CC2)C1c1ccc([N+](=O)[O-])cc1` (single isomer, unassigned; (-)) [(−)-119, 1,4-dihydro-2,6-dimethyl-5-(N-methyl) carboxamido-4-(4-nitrophenyl)-3-{N-[3-(4,4-diphenylpiperidin-1-yl)propyl]} carboxamidopyridine], the values for the Ki in data set [1] (setting [4]), in data set [2] (setting [5]) and in data set [3] (pKi alpha-1 1a) were 676 nM, 2.57 nM and 1170 nM, respectively.

In the case of `CC1=C(C(=O)OCC[Si](C)(C)C)C(c2ccc([N+](=O)[O-])cc2)C(C(=O)NCCCN2CCC(c3ccccc3)(c3ccccc3)CC2)=C(COCCN=[N+]=[N-])N1` (stereo not shown) [Example 152, 2-((2-Azidoethyl)oxy)methyl-1,4-dihydro-6-methyl-s-(2-trimethylsilylethoxy)carbonyl-4-(4-nitro)phenyl-3-(N-(3-(4,4-diphenylpiperidin-1-yl)propyl))carboxamidopyridine], the figures for the Ki in data set [1] (setting [4]), in data set [2] (setting [5]) and in data set [3] (setting [6]) were 219 nM, 933 nM and 490 nM, respectively.

Consider `CCC1=C(C(=O)NCCCN2CCC(c3ccccc3)(c3ccccc3)CC2)C(c2ccc([N+](=O)[O-])cc2)C(C(=O)OC(C)(C)C)=C(COCCN)N1` (stereo not shown) [Example 140], for which the Ki is 14500 nM in data set [1] (setting [4]), 7080 nM in data set [2] (setting [5]) and 7240 nM in data set [3] (setting [6]).

In the case of `CC1=C(C(N)=O)C(c2ccc([N+](=O)[O-])cc2)C(C(=O)NCCCN2CCC(C#N)(c3ccccc3)CC2)=C(COCCN)N1` (stereo not shown) [Example 215], the Ki in data set [1] (setting [7]) was 1260 nM; in data set [2] (setting [8]) it was 3.63 nM; in data set [3] (setting [9]) it was 3390 nM.

With `COC(=O)C1=C(C)NC(C)=C(C(=O)NCCCN2CCC(C(=O)OC)(c3ccccc3)CC2)C1c1ccc([N+](=O)[O-])cc1` (stereo not shown) [Example 206, 1,4-Dihydro-2,6-dimethyl-5-methoxycarbonyl-3-{N-[3-(4-methoxycarbonyl-4-phenylpiperidin-1-yl)propyl]}carboxamido-4-(4-nitrophenyl)pyridine], in data set [3] (setting [9]), the Ki was 1150 nM.
